Key:
Experiment in all cases: combination Emax (second highest fraction inhibited in the dose matrix, 72 h); higher = more inhibition; extreme values may be limits of the assay
ES1 (Ewing's Sarcoma) = system: ES1 (Ewing's Sarcoma)
Summary of the method: (§1)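 After 24 hours at 37°C and 5% CO2 in 1536-well plates, cells in DMEM/F12 or RPMI plus 10% FBS received two-drug dose matrices for 72 hours. Viability came from CellTiter-Glo 2.0 luminescence and was scaled as inhibition, anchored at 0 by vehicle wells and at 1 by blank wells. Combination Emax is taken as the second-highest inhibition in the matrix, and Bliss excess as the observed combination effect less EA + EB − EA·EB, with EA and EB the single-agent effects.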

[1] = system: MKN28 (Gastric Carcinoma)
Summary of the method: as §1

[2] = system: P12-ICHIKAWA (T-Lymphoblastic Leukemia)
Summary of the method: as §1

[3] = system: NCI-H847 (Small Cell Lung Carcinoma)
Summary of the method: as §1

[4] = system: MOLT-16 (T-Lymphoblastic Leukemia)
Summary of the method: as §1

U251 (Low Grade Glioma) = system: U251 (Low Grade Glioma)
Summary of the method: as §1

[5] = system: DND-41 (T-Lymphoblastic Leukemia)
Summary of the method: as §1

WM-115 (Melanoma) = system: WM-115 (Melanoma)
Summary of the method: as §1

WIL2-NS (Non-Cancerous) = system: WIL2-NS (Non-Cancerous)
Summary of the method: as §1

[6] = system: K-562 (Chronic Myelogenous Leukemia)
Summary of the method: as §1

[7] = system: COLO-678 (Colorectal Carcinoma)
Summary of the method: as §1

[8] = system: EVSA-T (Breast Carcinoma)
Summary of the method: as §1

[9] = system: MFM-223 (Breast Carcinoma)
Summary of the method: as §1

[10] = system: TOV-112D (Ovarian Carcinoma)
Summary of the method: as §1

[11] = system: CAMA-1 (Breast Carcinoma)
Summary of the method: as §1

[12] = system: TE-6 (Esophageal Squamous Cell Carcinoma)
Summary of the method: as §1

[13] = system: DiFi (Colorectal Carcinoma)
Summary of the method: as §1

TC-71 (Ewing's Sarcoma) = system: TC-71 (Ewing's Sarcoma)
Summary of the method: as §1

[14] = system: NCI-H1792 (Lung Adenocarcinoma)
Summary of the method: as §1

[15] = system: SW837 (Colorectal Carcinoma)
Summary of the method: as §1

Compound | combination Emax (ES1 (Ewing's Sarcoma)) | combination Emax [1] | combination Emax [2] | combination Emax [3] | combination Emax [4] | combination Emax (U251 (Low Grade Glioma)) | combination Emax [5] | combination Emax (WM-115 (Melanoma)) | combination Emax (WIL2-NS (Non-Cancerous)) | combination Emax [6] | combination Emax [7] | combination Emax [8] | combination Emax [9] | combination Emax [10] | combination Emax [11] | combination Emax [12] | combination Emax [13] | combination Emax (TC-71 (Ewing's Sarcoma)) | combination Emax [14] | combination Emax [15]
Cc1c2c(nn1C)CSCc1cc(n(C)n1)CSc1cc(c3ccccc3c1)OCCCc1c(C(=O)O)n(C)c3c-2c(Cl)ccc13 [AZD5991] + CCN(CCO)CCCOc1ccc2c(Nc3cc(CC(=O)Nc4cccc(F)c4)[nH]n3)ncnc2c1 [AZD2811] (first compound max 1 µM, 7x7, partner max 1 µM) | 0.983 | 0.329 | 1 | 0.973 | 1 | 0.423 | 0.21 | 0.232 | 0.339 | 0.43 | 0.227 | 1 | 0.574 | 0.868 | 0.914 | 0.715 | 0.859 | 0.848 | 0.314 | 0.231
C=CCn1c(=O)c2cnc(Nc3ccc(N4CCN(C)CC4)cc3)nc2n1-c1cccc(C(C)(C)O)n1 [AZD1775] + C1CN(CCC1(C(=O)N[C@@H](CCO)C2=CC=C(C=C2)Cl)N)C3=NC=NC4=C3C=CN4 [Capivasertib] (first compound max 3 µM, partner max 3 µM) | 0.797 | 0.609 | 1 | 1 | 1 | 0.671 | 0.899 | 0.536 | 0.953 | 0.895 | 0.51 | 0.958 | 0.711 | 0.889 | 0.775 | 0.736 | 0.643 | 0.92 | 0.808 | 0.692
Cc1c2c(nn1C)CSCc1cc(n(C)n1)CSc1cc(c3ccccc3c1)OCCCc1c(C(=O)O)n(C)c3c-2c(Cl)ccc13 [AZD5991] + C[C@@H]1COCCN1C2=NC(=NC(=C2)C3(CC3)[S@](=N)(=O)C)C4=C5C=CNC5=NC=C4 [AZD6738] (first compound max 1 µM, 7x7, partner max 10 µM) | 1 | 0.405 | 1 | 0.994 | 1 | 0.648 | 0.9 | 0.471 | 0.969 | 0.864 | 0.241 | 1 | 0.824 | 0.963 | 0.751 | 0.817 | 0.923 | 0.987 | 0.731 | 0.354
CN(CCO)CC[C@H](CSc1ccccc1)Nc1ccc(S(=O)(=O)NC(=O)c2ccc(N3CCC([C@@H](O)c4ccccc4-c4ccc(Cl)cc4)CC3)cc2)cc1S(=O)(=O)C(F)(F)F [AZD4320] + CN(C)CCCOc1ccc(-c2ccc3ncc4c(c3c2)n(C2CCOCC2)c(=O)n4C)cn1 [AZD0156] (first compound max 1 µM, 7x7, partner max 1 µM) | 0.226 | 0.0805 | 1 | 1 | 0.989 | 0.185 | 1 | 0.363 | 0.22 | 0.345 | 0.0581 | 0.163 | 0.199 | 0.222 | 0.117 | 0.391 | 0.608 | 0.659 | 0.12 | 0.191
Cc1c2c(nn1C)CSCc1cc(n(C)n1)CSc1cc(c3ccccc3c1)OCCCc1c(C(=O)O)n(C)c3c-2c(Cl)ccc13 [AZD5991] + Cc1cc2ncnn2cc1Nc1ncc2c(n1)n(C1CCOCC1)c(=O)n2C [AZD7648] (first compound max 1 µM, 7x7, partner max 10 µM) | 0.798 | 0.25 | 1 | 0.877 | 1 | 0.229 | 0.164 | 0.357 | 0.41 | 0.182 | 0.152 | 1 | 0.288 | 0.492 | 0.742 | 0.683 | 0.319 | 0.48 | 0.441 | 0.128
CN(CCO)CC[C@H](CSc1ccccc1)Nc1ccc(S(=O)(=O)NC(=O)c2ccc(N3CCC([C@@H](O)c4ccccc4-c4ccc(Cl)cc4)CC3)cc2)cc1S(=O)(=O)C(F)(F)F [AZD4320] + CCN(CCO)CCCOc1ccc2c(Nc3cc(CC(=O)Nc4cccc(F)c4)[nH]n3)ncnc2c1 [AZD2811] (first compound max 1 µM, 7x7, partner max 1 µM) | 0.613 | 0.184 | 1 | 1 | 1 | 0.42 | 1 | 0.453 | 0.311 | 0.333 | 0.456 | 0.704 | 0.693 | 0.485 | 0.616 | 0.524 | 0.882 |  | 0.113 | 0.508
CN(CCO)CC[C@H](CSc1ccccc1)Nc1ccc(S(=O)(=O)NC(=O)c2ccc(N3CCC([C@@H](O)c4ccccc4-c4ccc(Cl)cc4)CC3)cc2)cc1S(=O)(=O)C(F)(F)F [AZD4320] + Cn1cnc2c(F)c(Nc3ccc(Br)cc3Cl)c(C(=O)NOCCO)cc21 [Selumetinib] (first compound max 1 µM, 7x7, partner max 3 µM) | 0.786 | 0.356 | 1 | 1 | 1 | 0.651 | 1 | 0.878 | 0.633 | 0.516 | 0.604 | 0.506 |  | 0.248 | 0.468 | 0.593 | 0.951 | 0.985 | 0.369 | 0.489
Cc1c2c(nn1C)CSCc1cc(n(C)n1)CSc1cc(c3ccccc3c1)OCCCc1c(C(=O)O)n(C)c3c-2c(Cl)ccc13 [AZD5991] + C=CCn1c(=O)c2cnc(Nc3ccc(N4CCN(C)CC4)cc3)nc2n1-c1cccc(C(C)(C)O)n1 [AZD1775] (first compound max 1 µM, partner max 1 µM) |  | 0.572 | 1 | 1 | 1 | 0.423 | 0.875 | 0.34 | 0.963 | 0.747 | 0.391 | 1 | 0.562 | 0.714 | 0.635 | 0.773 | 0.856 | 0.578 | 0.708 | 0.406
CN(CCO)CC[C@H](CSc1ccccc1)Nc1ccc(S(=O)(=O)NC(=O)c2ccc(N3CCC([C@@H](O)c4ccccc4-c4ccc(Cl)cc4)CC3)cc2)cc1S(=O)(=O)C(F)(F)F [AZD4320] + C1CN(CCC1(C(=O)N[C@@H](CCO)C2=CC=C(C=C2)Cl)N)C3=NC=NC4=C3C=CN4 [Capivasertib] (first compound max 1 µM, 7x7, partner max 3 µM) | 0.246 |  | 1 | 1 | 1 | 0.181 | 1 | 0.829 | 0.535 | 0.129 | 0.0393 | 0.924 | 0.741 | 0.131 | 0.821 | 0.633 | 0.804 | 0.544 | 0.0895 | 0.104
CN(CCO)CC[C@H](CSc1ccccc1)Nc1ccc(S(=O)(=O)NC(=O)c2ccc(N3CCC([C@@H](O)c4ccccc4-c4ccc(Cl)cc4)CC3)cc2)cc1S(=O)(=O)C(F)(F)F [AZD4320] + C[C@@H](Nc1cc(F)cc(F)c1)c1cc(C(=O)N(C)C)cc2c(=O)cc(N3CCOCC3)oc12 [AZD8186] (first compound max 1 µM, 7x7, partner max 3 µM) | 0.725 | 0.263 | 1 | 1 | 1 | 0.635 | 1 | 0.914 | 0.652 | 0.313 | 0.344 | 0.885 |  | 0.205 | 0.84 | 0.563 | 0.961 | 1 | 0.323 | 0.395
COc1cccc(OCCCN)c1-c1cc(Nc2cnc(C#N)cn2)n[nH]1 [Prexasertib] + Cc1cc2ncnn2cc1Nc1ncc2c(n1)n(C1CCOCC1)c(=O)n2C [AZD7648] (first compound max 1 µM, 7x7, partner max 10 µM) | 1 | 0.575 |  | 1 | 1 | 0.622 | 0.844 | 0.59 | 1 | 0.948 | 0.0565 | 0.358 | 0.763 | 0.711 | 0.384 | 0.554 | 0.864 | 0.945 | 0.87 | 0.749
Cc1cc2ncnn2cc1Nc1ncc2c(n1)n(C1CCOCC1)c(=O)n2C [AZD7648] + O=C(c1cc(Cc2n[nH]c(=O)c3ccccc23)ccc1F)N1CCN(C(=O)C2CC2)CC1 [Olaparib] (first compound max 10 µM, 7x7, partner max 10 µM) | 0.686 | 0.103 |  | 0.853 | 0.633 | 0.185 | 0.26 | 0.229 | 0.461 | 0.176 | 0.132 | 0.253 | 0.172 | 0.353 | 0.109 | 0.328 | 0.258 | 0.6 | 0.322 | 0.0487

— the supplement of paper PMC11061612
